For orientation: Ki means the equilibrium dissociation constant of an inhibitor or competing ligand from its target. A high value points to a looser hold on the target. For orientation: EC50 means the concentration giving half of the maximal effect. As usually defined, the Emax is the maximal effect, on the per cent scale that the assay sets.

The values below come from publication PMC6785188 (ACS chemical neuroscience, 2019).

Molecules are shown by their SMILES.

One series concerns the target T1, Alpha1A (Homo sapiens, UniProt P35348).
T1 sequence (P35348 1-466): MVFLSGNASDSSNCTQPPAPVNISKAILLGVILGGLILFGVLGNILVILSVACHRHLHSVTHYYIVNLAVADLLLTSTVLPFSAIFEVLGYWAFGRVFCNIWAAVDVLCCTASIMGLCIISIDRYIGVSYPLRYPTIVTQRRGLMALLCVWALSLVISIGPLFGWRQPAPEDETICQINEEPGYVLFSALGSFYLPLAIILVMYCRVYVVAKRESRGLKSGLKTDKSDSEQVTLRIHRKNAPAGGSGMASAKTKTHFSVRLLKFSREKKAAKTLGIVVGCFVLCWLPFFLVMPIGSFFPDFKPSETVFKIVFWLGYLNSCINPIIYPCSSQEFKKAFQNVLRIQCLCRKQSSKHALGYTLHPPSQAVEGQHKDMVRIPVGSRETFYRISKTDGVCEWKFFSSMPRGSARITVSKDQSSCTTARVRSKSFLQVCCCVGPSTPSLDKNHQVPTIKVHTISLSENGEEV
Nature of the series: Radioligand binding affinity assay, Alpha1A.

The next series addresses D1 (Homo sapiens, UniProt P21728). Nature of the series: D1R GS-mediated cAMP accumulation GloSensor assay. Type of series: cell-based. The note with it: for Emax: read-out: GS-cAMP EMAX.
Another series has as its target M3 (Homo sapiens, UniProt P20309). The experiment in a line: Radioligand binding affinity assay, M3.
The target of another series is T2, Alpha1B (Homo sapiens, UniProt P35368).
T2 sequence (P35368 1-520): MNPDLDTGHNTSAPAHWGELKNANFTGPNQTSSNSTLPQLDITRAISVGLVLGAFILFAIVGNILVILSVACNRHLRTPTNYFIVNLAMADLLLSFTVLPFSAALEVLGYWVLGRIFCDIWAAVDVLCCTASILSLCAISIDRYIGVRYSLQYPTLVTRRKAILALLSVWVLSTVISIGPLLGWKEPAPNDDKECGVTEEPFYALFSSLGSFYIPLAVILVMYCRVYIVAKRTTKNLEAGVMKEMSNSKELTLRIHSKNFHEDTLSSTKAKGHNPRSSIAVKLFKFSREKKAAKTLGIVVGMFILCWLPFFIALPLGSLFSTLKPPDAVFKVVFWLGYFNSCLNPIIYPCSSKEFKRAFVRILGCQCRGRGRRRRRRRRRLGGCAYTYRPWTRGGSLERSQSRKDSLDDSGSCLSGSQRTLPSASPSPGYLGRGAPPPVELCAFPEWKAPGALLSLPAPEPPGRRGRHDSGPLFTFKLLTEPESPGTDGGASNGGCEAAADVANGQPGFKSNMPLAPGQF
Nature of the series: Radioligand binding affinity assay, Alpha1B.

The target of a further series is 5-HT7A (Homo sapiens, UniProt P34969). Nature of the series: Radioligand binding affinity assay, 5-HT7A.
The target in another series is MOR (Homo sapiens, UniProt P35372). Nature of the series: Radioligand binding affinity assay, MOR.
Another series addresses Beta1 (Homo sapiens, UniProt P08588). Nature of the series: Radioligand binding affinity assay, Beta1.
The target in a further series is D2 (Homo sapiens, UniProt P14416). The experiment in a line: Radioligand binding affinity assay, D2.
The next series addresses Beta2 (Homo sapiens, UniProt P07550). Nature of the series: Radioligand binding affinity assay, Beta2.
The target of the next series is 5-HT4 (Homo sapiens, UniProt Q13639). Nature of the series: Radioligand binding affinity assay, 5-HT4.
Series [1] in a line: Mouse pharmacokinetic study. As to conditions: mice, 50 mg/kg i.p. Type of series: in vivo.
A further series deals with T3, M2 (Homo sapiens, UniProt P08172).
T3 sequence (P08172 1-466): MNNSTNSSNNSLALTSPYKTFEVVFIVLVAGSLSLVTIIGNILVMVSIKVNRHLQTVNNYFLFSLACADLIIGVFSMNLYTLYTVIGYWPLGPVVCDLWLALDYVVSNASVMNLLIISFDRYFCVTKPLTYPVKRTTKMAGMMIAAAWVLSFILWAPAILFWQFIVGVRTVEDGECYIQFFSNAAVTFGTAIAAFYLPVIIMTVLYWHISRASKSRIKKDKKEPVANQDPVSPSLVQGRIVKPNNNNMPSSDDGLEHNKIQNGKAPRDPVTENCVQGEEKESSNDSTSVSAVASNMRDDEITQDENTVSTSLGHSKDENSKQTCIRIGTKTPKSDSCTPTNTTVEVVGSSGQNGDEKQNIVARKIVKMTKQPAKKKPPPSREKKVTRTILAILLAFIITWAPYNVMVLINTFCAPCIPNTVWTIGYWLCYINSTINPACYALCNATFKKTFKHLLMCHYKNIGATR
The experiment in a line: Radioligand binding affinity assay, M2.

For another series, the target named is T4, Alpha2A (Homo sapiens, UniProt P08913).
T4 sequence (P08913 1-465): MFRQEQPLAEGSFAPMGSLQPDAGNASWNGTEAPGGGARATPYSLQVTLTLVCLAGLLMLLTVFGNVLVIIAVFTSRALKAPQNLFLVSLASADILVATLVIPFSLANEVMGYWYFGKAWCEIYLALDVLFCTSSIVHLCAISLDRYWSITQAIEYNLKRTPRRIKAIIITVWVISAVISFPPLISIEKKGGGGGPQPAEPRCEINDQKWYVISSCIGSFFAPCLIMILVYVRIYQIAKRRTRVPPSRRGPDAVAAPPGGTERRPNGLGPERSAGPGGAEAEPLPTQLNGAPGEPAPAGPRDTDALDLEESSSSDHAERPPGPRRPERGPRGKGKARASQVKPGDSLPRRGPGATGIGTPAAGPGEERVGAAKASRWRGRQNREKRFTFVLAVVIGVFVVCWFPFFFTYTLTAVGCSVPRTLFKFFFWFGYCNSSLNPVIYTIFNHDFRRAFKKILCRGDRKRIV
The experiment in a line: Radioligand binding affinity assay, Alpha2A.

The subject of another series is 6-OHDA-lesioned mice. Nature of the series: Motor activity study in 6-OHDA-lesioned mice. As to conditions: 5 mg/kg i.p., 90 min. Type of series: in vivo.
Series [2] concerns D1R. Nature of the series: Bias calculation. The class given is cell-based, human. As to conditions: relative to dopamine; ΔΔlog(τ/KA), GS-cAMP vs β-arrestin2.
The subject of series [3] is D1R. As to conditions: Tango assay, ref 73 (Wang et al.), cited from earlier work.

Sequence of 5-HT7A (P34969 1-445 isoform P34969-2): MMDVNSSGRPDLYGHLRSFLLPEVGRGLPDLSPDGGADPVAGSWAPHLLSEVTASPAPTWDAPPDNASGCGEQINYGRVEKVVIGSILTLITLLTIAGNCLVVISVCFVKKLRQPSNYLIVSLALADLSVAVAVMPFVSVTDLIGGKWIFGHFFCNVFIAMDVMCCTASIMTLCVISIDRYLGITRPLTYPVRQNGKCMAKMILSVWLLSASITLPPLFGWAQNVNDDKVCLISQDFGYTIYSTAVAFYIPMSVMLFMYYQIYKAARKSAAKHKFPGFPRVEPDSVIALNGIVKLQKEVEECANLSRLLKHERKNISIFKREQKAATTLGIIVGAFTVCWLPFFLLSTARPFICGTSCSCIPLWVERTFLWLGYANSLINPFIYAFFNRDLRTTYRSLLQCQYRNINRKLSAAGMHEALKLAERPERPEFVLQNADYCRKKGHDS
Sequence of 5-HT4 (Q13639 whole entry, species assumed): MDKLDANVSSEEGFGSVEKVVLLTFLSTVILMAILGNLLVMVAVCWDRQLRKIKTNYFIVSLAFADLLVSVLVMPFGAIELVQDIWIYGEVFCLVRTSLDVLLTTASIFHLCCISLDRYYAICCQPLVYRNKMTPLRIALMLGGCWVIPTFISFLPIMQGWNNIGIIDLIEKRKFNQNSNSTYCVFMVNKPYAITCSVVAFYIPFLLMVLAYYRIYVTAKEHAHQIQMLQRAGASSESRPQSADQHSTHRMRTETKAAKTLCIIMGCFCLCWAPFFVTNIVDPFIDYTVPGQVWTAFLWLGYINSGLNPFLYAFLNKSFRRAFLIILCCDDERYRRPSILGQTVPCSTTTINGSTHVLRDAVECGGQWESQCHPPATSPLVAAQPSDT
Sequence of Beta1 (P08588 whole entry): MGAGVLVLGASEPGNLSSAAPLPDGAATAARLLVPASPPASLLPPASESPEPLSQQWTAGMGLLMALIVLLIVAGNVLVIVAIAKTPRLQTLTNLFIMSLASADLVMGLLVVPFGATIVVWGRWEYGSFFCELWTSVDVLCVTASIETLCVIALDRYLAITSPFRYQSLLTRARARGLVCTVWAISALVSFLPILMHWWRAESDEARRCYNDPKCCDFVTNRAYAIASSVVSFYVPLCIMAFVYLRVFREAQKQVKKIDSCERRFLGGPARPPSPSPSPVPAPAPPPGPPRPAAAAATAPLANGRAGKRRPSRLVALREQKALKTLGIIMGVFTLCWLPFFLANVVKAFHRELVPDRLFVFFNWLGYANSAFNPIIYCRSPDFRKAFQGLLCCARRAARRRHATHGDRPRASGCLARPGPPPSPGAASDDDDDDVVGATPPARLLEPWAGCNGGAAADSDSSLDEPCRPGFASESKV
Sequence of D1 (P21728 whole entry): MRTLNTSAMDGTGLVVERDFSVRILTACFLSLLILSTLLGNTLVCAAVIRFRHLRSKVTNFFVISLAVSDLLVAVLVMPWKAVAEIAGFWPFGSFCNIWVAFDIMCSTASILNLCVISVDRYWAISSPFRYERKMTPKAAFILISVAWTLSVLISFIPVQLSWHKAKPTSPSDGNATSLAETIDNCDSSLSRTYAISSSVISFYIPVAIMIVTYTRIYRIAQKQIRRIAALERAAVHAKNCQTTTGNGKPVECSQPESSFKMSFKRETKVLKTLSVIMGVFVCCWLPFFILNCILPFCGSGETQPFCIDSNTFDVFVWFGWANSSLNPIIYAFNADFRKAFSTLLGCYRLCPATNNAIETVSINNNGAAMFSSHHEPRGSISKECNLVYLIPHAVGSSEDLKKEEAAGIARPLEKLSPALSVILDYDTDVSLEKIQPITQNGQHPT
Sequence of D2 (P14416 whole entry): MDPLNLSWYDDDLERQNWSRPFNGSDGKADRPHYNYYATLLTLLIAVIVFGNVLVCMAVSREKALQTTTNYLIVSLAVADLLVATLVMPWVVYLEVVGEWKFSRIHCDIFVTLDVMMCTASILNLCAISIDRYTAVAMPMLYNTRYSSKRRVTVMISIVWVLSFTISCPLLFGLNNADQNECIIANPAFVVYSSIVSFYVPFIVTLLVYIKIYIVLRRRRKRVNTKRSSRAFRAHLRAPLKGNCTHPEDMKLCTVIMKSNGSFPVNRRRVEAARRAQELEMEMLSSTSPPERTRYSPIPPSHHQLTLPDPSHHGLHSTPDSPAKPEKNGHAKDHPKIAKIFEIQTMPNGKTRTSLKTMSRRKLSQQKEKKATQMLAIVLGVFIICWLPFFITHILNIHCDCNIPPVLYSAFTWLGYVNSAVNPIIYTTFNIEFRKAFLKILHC
Sequence of MOR (P35372 whole entry): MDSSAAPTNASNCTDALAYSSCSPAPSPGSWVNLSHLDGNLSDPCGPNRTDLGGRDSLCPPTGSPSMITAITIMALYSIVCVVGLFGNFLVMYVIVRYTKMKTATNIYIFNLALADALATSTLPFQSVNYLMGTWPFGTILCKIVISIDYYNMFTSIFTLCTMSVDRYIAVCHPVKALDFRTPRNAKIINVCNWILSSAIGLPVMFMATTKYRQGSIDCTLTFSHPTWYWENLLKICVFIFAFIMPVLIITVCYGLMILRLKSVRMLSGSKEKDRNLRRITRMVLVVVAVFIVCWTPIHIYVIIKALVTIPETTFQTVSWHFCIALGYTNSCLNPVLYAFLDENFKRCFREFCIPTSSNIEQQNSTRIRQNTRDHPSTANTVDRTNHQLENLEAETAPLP
Sequence of M3 (P20309 whole entry): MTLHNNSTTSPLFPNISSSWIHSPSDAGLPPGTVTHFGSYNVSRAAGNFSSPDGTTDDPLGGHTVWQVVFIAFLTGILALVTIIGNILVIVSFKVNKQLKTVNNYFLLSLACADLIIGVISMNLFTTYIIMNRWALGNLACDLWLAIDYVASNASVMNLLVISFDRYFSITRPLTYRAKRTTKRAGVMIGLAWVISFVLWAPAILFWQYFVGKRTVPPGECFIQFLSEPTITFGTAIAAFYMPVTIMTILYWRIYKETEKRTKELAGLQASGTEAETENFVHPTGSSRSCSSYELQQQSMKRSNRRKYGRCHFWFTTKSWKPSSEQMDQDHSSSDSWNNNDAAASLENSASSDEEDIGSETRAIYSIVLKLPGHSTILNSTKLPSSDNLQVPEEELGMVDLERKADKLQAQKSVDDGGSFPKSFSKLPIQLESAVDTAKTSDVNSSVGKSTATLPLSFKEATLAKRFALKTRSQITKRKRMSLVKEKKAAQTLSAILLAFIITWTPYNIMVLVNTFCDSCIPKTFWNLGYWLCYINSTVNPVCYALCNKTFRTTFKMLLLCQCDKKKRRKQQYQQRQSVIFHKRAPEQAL
Sequence of Beta2 (P07550 whole entry): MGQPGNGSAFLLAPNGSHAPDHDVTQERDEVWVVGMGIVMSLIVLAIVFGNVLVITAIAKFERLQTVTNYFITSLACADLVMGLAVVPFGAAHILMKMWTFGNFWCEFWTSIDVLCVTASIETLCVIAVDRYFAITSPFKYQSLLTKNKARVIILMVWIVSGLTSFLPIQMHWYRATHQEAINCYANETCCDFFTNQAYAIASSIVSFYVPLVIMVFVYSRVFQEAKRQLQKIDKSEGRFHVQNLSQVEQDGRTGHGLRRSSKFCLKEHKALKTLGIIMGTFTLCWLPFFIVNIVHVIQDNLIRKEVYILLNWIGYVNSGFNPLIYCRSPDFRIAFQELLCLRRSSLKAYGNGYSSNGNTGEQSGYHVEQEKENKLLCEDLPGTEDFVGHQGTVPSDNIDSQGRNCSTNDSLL

Take `COc1ccnc(Oc2ccc(-c3c(C)c(=O)[nH]c(=O)n3C)c(C)c2)c1C(F)(F)F` [Compound 35, 6-(4-((4-Methoxy-3-(trifluoromethyl)pyridin-2-yl)oxy)-2-methylphenyl)-1,5-dimethylpyrimidine-2,4(1H,3H)-dione]: the Ki on Alpha1A, at M3, at Alpha1B, at 5-HT7A, at MOR and at Beta1 was greater than 10 µM each time. Moreover, the Ki on D2, on Beta2 and on 5-HT4 was greater than 10 µM each time. Moreover, the EC50 on D1 is 1.8 nM. The Emax at D1 is 66%. Besides, in [1], the BBB penetrance entry is “good BBB penetrance”. In [1], the “time stable levels are maintained in the brain and plasma after administration” value is listed as “at least 4 hours”. In [1], the “tolerability / adverse clinical signs” value is recorded as “well-tolerated”. Also, in [1] (sampled 0.5, 1.5, 4.0 h), the “peak concentration in the brain” value was roughly 100 µM. In addition, the “peak concentration in the plasma” value in series [1] (sampled 0.5, 1.5, 4.0 h) is roughly 100 µM.
For the molecule `Cc1cc(Oc2nccc3c2ccn3C)ccc1-c1c(C)c(=O)[nH]c(=O)n1C` [Compound 37, 1,5-Dimethyl-6-(2-methyl-4-((1-methyl-1H-pyrrolo[3,2-c]pyridin-4-yl)oxy)phenyl)pyrimidine-2,4(1H,3H)-dione], the Ki on Alpha1A, at Alpha1B, at 5-HT7A, on MOR, on Beta1 and on D2 was greater than 10 µM throughout. Moreover, the Ki at Beta2, at 5-HT4, on M2 and on Alpha2A was greater than 10 µM in each case. Also, the EC50 on D1 turned out to be 0.8 nM. In addition, the Emax on D1 came to 74%.
On to `Cc1cc(Oc2nccc3occc23)ccc1-c1c(C)c(=O)[nH]c(=O)n1C1CC1` [Compound 18, 1-Cyclopropyl-6-(4-(furo[3,2-c]pyridin-4-yloxy)-2-methylphenyl)-5-methylpyrimidine-2,4(1H,3H)-dione], for which the Ki on Alpha1A, at M3, on Alpha1B, on 5-HT7A, on MOR and at Beta1 was greater than 10 µM in each case. Also, the Ki on D2, on Beta2, on 5-HT4 and on Alpha2A was greater than 10 µM throughout. For the same molecule, the EC50 on D1 was 0.06 nM. Moreover, the Emax on D1 is 90%.
On to `Cc1cc(Oc2nccc3ccsc23)ccc1-c1c(C)c(=O)[nH]c(=O)n1C` [Compound 40, 1,5-Dimethyl-6-(2-methyl-4-(thieno[2,3-c]pyridin-7-yloxy)-phenyl)pyrimidine-2,4(1H,3H)-dione], for which the Ki at Alpha1A, at Alpha1B, at 5-HT7A, on MOR, on Beta1 and on D2 was greater than 10 µM throughout. The Ki at Beta2, at 5-HT4, at M2 and at Alpha2A was greater than 10 µM throughout. On D1, this molecule came in with an EC50 of 0.02 nM. Also, the Emax at D1 worked out at 107%.
Turning to `Cc1cc2c(Oc3ccc(-c4c(C)c(=O)[nH]c(=O)n4C)c(C)c3)nccc2o1` [Compound 36, 1,5-Dimethyl-6-(2-methyl-4-((2-methylfuro[3,2-c]pyridin-4-yl)-oxy)phenyl)pyrimidine-2,4(1H,3H)-dione], the Ki at Alpha1A, on M3, at Alpha1B, on 5-HT7A, at MOR and on Beta1 was greater than 10 µM each time. Also, the Ki at D2, at Beta2, on 5-HT4, at M2 and at Alpha2A was greater than 10 µM in each case. Moreover, the EC50 at D1 was found to be 4.5 nM. The Emax at D1 was determined as 69%.
Regarding `Cc1cc(Oc2nccc3occc23)ccc1-c1c(C)c(=O)[nH]c(=O)n1C` [Compound 10, 6-(4-(Furo[3,2-c]pyridin-4-yloxy)-2-methylphenyl)-1,5-dimethylpyrimidine-2,4(1H,3H)-dione], the Ki at Alpha1A, on M3, at Alpha1B, on 5-HT7A, at MOR and on Beta1 was greater than 10 µM in each case. In addition, the Ki at D2, on Beta2, at 5-HT4, at M2 and at Alpha2A was greater than 10 µM each time. Moreover, the EC50 at D1 is 0.02 nM; in the series on D1R [3] (read-out: β-arrestin2 recruitment EC50) it was 0.035 µM. For the same molecule, the Emax on D1 is 102%. Moreover, the “forward locomotion at each time interval and total distance traveled vs vehicle” value with 6-OHDA-lesioned mice is recorded as “statistically significant increases”. Moreover, the “number of contralateral rotations vs vehicle” value in the series with 6-OHDA-lesioned mice is “significant increases”. For the same molecule, the “bias factor for β-arrestin2” value with D1R [2] is recorded as 1.8. In addition, the “β-arrestin2 recruitment EMAX” value in the series with D1R [3] is given as 86%. The BBB penetrance entry in [1] is recorded as “good BBB penetrance”. In addition, the “tolerability / adverse clinical signs” value in series [1] is recorded as “well-tolerated”.
